Measured values taken from patent publication US5681739A.

Tests used:
soil cultures = type: cell-based; details: soil cultures of Example 6 after 32 hours of growth
[1] = pH, Eh and total chromium of soil cultures after growth; type: physicochemical; details: cell-free supernatants, after 32 hours of growth
Procedure: Immediately after collection in sterile containers, the soil samples were stored at 4° C. for 30 days before use. Soil dilutions (10^-1 g/mL) were made in sterile isotonic phosphate buffer. One mL of each soil dilution was inoculated into 165 mL sealed serum vials containing 50 mL of TSB with N2 in the headspace. The serum vials and their contents were sterilized prior to inoculation.
Cr(VI) was added to the culture broth as K2 CrO4 to a final concentration of about 20 mg/L of Cr(VI). Cultures were incubated, at 30° C. on a gyratory shaker at 100 rpm, in an inverted position to limit gas leakage. Samples were analyzed periodically for Cr(VI) concentration and cell density.
After 32 hours of growth, pH, Eh, and total chromium levels of the cultures of Example 6 were determined. The initial pH of TSB was 7.04. Eh was measured with a platinum electrode (Microelectrodes, Inc., Londonderry, N.H.) using an ACCUMET 50 digital pH meter (Fisher Scientific, Pittsburgh, Pa.). Total chromium was analyzed with inductively coupled plasma emission spectroscopy (Model 3410, ARL) of clarified cultures.

## [Cr+3] [Cr(III)]
Soil cultures
  bacterial growth inhibition related to Cr(III): no evidence of Cr(III) precipitating out of solution or bacterial growth inhibition related to Cr(III)
[1]
  Cr(III) precipitation out of solution: no evidence of Cr(III) precipitating out of solution
